Reference: ChEMBL document CHEMBL1201862, “PubChem BioAssay data set” (2004)
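Test compounds were applied to cells in 96-well plates for 48 hours at 5 doses. Here, GI50 denotes the concentration required for 50% inhibition of growth.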 Active and inactive are the calls of the source. No stated cut-off is given here; in the data, active = GI50 up to about 1.1 µM and inactive = higher.

Legend:
Assay in all cases: DTP human tumour cell line panel, 48 h
[1] = tested on: ACHN
[2] = tested on: DLD-1
[3] = tested on: DMS-114
[4] = tested on: EKVX
[5] = tested on: HCT-15
[6] = tested on: MOLT-4
[7] = tested on: NCI-H460
[8] = tested on: NCI-H522
[9] = tested on: SNB-78
[10] = tested on: SR
[11] = tested on: A498
[12] = tested on: HOP-18
[13] = tested on: BT-549
[14] = tested on: DU-145
[15] = tested on: Hs-578T
[16] = tested on: MCF7
[17] = tested on: MDA-MB-231
[18] = tested on: MDA-MB-435
[19] = tested on: PC-3
[20] = tested on: T47D

Structure (SMILES)	GI50 [1]	GI50 [2]	GI50 [3]	GI50 [4]	GI50 [5] [µM]	GI50 [6]	GI50 [7]	GI50 [8]	GI50 [9]	GI50 [10]	GI50 [11]	GI50 [12]	GI50 [13]	GI50 [14]	GI50 [15]	GI50 [16]	GI50 [17]	GI50 [18]	GI50 [19]	GI50 [20]
CCOC(=O)NC(=O)c1cn(CCNCCO)c(=O)[nH]c1=O	> 100 µM (inactive)	> 100 µM (inactive)	> 100 µM (inactive)	> 100 µM (inactive)	> 100	> 100 µM (inactive)	> 100 µM (inactive)	> 100 µM (inactive)	> 100 µM (inactive)	> 100 µM (inactive)	–	–	–	–	–	–	–	–	–	–
NC(S)=Nc1cc(Cl)ccc1Cl	> 100 µM (inactive)	> 100 µM (inactive)	> 100 µM (inactive)	> 100 µM (inactive)	> 100	> 100 µM (inactive)	> 100 µM (inactive)	> 100 µM (inactive)	> 100 µM (inactive)	> 100 µM (inactive)	> 100 µM (inactive)	> 100 µM (inactive)	–	–	–	–	–	–	–	–
Cc1ccc(C(=O)C2CC3(CCC2(O)c2ccc(C)cc2)CC(=O)Nc2ccccc2C3=O)cc1 (configuration not stated)	–	–	–	> 100 µM (inactive)	> 100	4.91 µM (inactive)	40 µM (inactive)	–	–	> 100 µM (inactive)	> 100 µM (inactive)	–	> 100 µM (inactive)	> 100 µM (inactive)	41.1 µM (inactive)	7.6 µM (inactive)	> 100 µM (inactive)	> 100 µM (inactive)	7.05 µM (inactive)	8.57 µM (inactive)
CC(=O)Nc1ccc(C(=O)NN2C(=O)C(Cl)C2/C=C/c2ccccc2)cc1 (configuration not stated)	> 100 µM (inactive)	> 100 µM (inactive)	–	–	–	> 100 µM (inactive)	> 100 µM (inactive)	> 100 µM (inactive)	–	> 100 µM (inactive)	–	> 100 µM (inactive)	–	–	–	–	–	–	–	–
COc1ccc(OC)c(C(=O)/C=C/c2cc(O)c(O)cc2F)c1	2.27 µM (inactive)	–	–	8.04 µM (inactive)	0.076	0.321 µM (active)	2.14 µM (inactive)	0.272 µM (active)	–	0.227 µM (active)	3.17 µM (inactive)	–	0.843 µM (active)	0.817 µM (active)	0.424 µM (active)	0.29 µM (active)	1.41 µM (inactive)	0.219 µM (active)	4.18 µM (inactive)	5.85 µM (inactive)
CC(=O)/C=C/c1c[nH]c(=O)[nH]c1=O	–	179 µM (inactive)	242 µM (inactive)	239 µM (inactive)	210	179 µM (inactive)	186 µM (inactive)	94.4 µM (inactive)	159 µM (inactive)	–	214 µM (inactive)	155 µM (inactive)	–	–	–	157 µM (inactive)	–	–	–	–
Nc1nc(=O)n(CC(O)CO)s1 (configuration not stated)	> 100 µM (inactive)	> 100 µM (inactive)	> 100 µM (inactive)	> 100 µM (inactive)	> 100	> 100 µM (inactive)	> 100 µM (inactive)	–	–	> 100 µM (inactive)	> 100 µM (inactive)	> 100 µM (inactive)	–	–	–	–	–	–	–	–
CC(C)(C)[Si](OC1CC(n2cnc3c(N)ncnc32)OC1CO)(c1ccccc1)c1ccccc1 (configuration not stated)	13.6 µM (inactive)	15.5 µM (inactive)	23.7 µM (inactive)	18.4 µM (inactive)	> 10	20.7 µM (inactive)	16.3 µM (inactive)	16 µM (inactive)	> 100 µM (inactive)	14.5 µM (inactive)	17.9 µM (inactive)	67.6 µM (inactive)	–	–	–	–	–	–	–	–
COc1ccc(-c2cc(-c3ccccc3)c(C#N)c(=O)n2C2OC(CO)C(O)C(O)C2O)cc1 (configuration not stated)	> 100 µM (inactive)	> 100 µM (inactive)	> 100 µM (inactive)	> 100 µM (inactive)	> 100	> 100 µM (inactive)	> 100 µM (inactive)	> 100 µM (inactive)	> 100 µM (inactive)	> 100 µM (inactive)	> 100 µM (inactive)	> 100 µM (inactive)	–	–	–	–	–	–	–	–
NC(=O)NN=C(CS)CS	–	34 µM (inactive)	30.5 µM (inactive)	18.8 µM (inactive)	22.8	23.7 µM (inactive)	23.7 µM (inactive)	22.6 µM (inactive)	41 µM (inactive)	–	14.9 µM (inactive)	26.7 µM (inactive)	–	–	–	24 µM (inactive)	–	–	–	–
Cc1[nH]c(=O)nc(S)c1C(=O)NC1C2CCCCC2NC2CCCCC21 (configuration not stated)	–	–	–	–	10.9	14.3 µM (inactive)	14.4 µM (inactive)	–	–	28.6 µM (inactive)	18.3 µM (inactive)	–	16.4 µM (inactive)	11.8 µM (inactive)	23.4 µM (inactive)	17 µM (inactive)	14.9 µM (inactive)	6.93 µM (inactive)	13.2 µM (inactive)	7.59 µM (inactive)
O=C1CC(=O)N(c2ccccc2)N1/C(=C/c1ccccc1)c1ccccc1	25.8 µM (inactive)	–	–	37.6 µM (inactive)	–	1.58 µM (inactive)	19.8 µM (inactive)	–	–	12.3 µM (inactive)	–	–	23.6 µM (inactive)	24.4 µM (inactive)	17.3 µM (inactive)	21 µM (inactive)	10.6 µM (inactive)	18.9 µM (inactive)	15.7 µM (inactive)	21.3 µM (inactive)
CCOC(=O)[C@H]1Nc2c(cccc2[N+](=O)[O-])[C@H]2OCC[C@@H]12	> 100 µM (inactive)	> 100 µM (inactive)	> 100 µM (inactive)	> 100 µM (inactive)	> 100	> 100 µM (inactive)	> 100 µM (inactive)	> 100 µM (inactive)	> 100 µM (inactive)	> 100 µM (inactive)	–	> 100 µM (inactive)	–	–	–	–	–	–	–	–
Cn1c(=O)[nH]c2c(c1=O)C(=O)CN2	> 10 µM (inactive)	> 100 µM (inactive)	> 100 µM (inactive)	> 100 µM (inactive)	> 100	> 100 µM (inactive)	> 100 µM (inactive)	–	> 100 µM (inactive)	> 100 µM (inactive)	–	> 100 µM (inactive)	–	–	–	–	–	–	–	–
CCSc1nc(N)c2c(-c3ccccc3)c3c(nc2n1)CCC3	> 100 µM (inactive)	–	–	> 100 µM (inactive)	> 100	> 100 µM (inactive)	> 100 µM (inactive)	–	–	> 100 µM (inactive)	–	–	> 100 µM (inactive)	> 100 µM (inactive)	> 100 µM (inactive)	> 100 µM (inactive)	> 100 µM (inactive)	> 100 µM (inactive)	> 100 µM (inactive)	> 100 µM (inactive)
N=C(N)NS(=O)(=O)c1ccc(Nc2c3ccccc3nc3c(C(=O)N4CCN(CCO)CC4)ccc(Cl)c23)cc1	> 100 µM (inactive)	> 100 µM (inactive)	> 100 µM (inactive)	–	> 100	> 100 µM (inactive)	> 100 µM (inactive)	–	30.5 µM (inactive)	–	> 100 µM (inactive)	–	–	–	–	–	–	–	–	–
CC(=O)NC(Cc1ccsc1)C(=O)O (configuration not stated)	–	> 100 µM (inactive)	> 100 µM (inactive)	> 100 µM (inactive)	> 100	> 100 µM (inactive)	> 100 µM (inactive)	> 100 µM (inactive)	> 100 µM (inactive)	–	> 100 µM (inactive)	> 100 µM (inactive)	–	–	–	> 100 µM (inactive)	–	–	–	–
CC(C)(Br)C(Br)CCC(C)(Br)C(Br)CO (configuration not stated)	> 10 µM (inactive)	–	–	> 10 µM (inactive)	> 10	> 10 µM (inactive)	–	> 10 µM (inactive)	–	–	> 10 µM (inactive)	–	> 10 µM (inactive)	> 10 µM (inactive)	> 10 µM (inactive)	> 10 µM (inactive)	> 10 µM (inactive)	> 10 µM (inactive)	> 10 µM (inactive)	> 10 µM (inactive)
COc1ccc(-c2c(C#N)c(N)nc3c2CCS(=O)(=O)c2ccccc2-3)cc1	> 100 µM (inactive)	–	–	–	> 100	–	> 100 µM (inactive)	> 100 µM (inactive)	–	> 100 µM (inactive)	> 100 µM (inactive)	–	> 100 µM (inactive)	> 100 µM (inactive)	37.7 µM (inactive)	–	> 100 µM (inactive)	> 100 µM (inactive)	> 100 µM (inactive)	> 100 µM (inactive)
Cc1cnc(SCCN2CCN(C)CC2)nc1-c1cc2ccccc2s1	–	12.6 µM (inactive)	7.66 µM (inactive)	–	10.5	2.52 µM (inactive)	3.51 µM (inactive)	14.7 µM (inactive)	16.7 µM (inactive)	2.48 µM (inactive)	15.3 µM (inactive)	< 0.01 µM (active)	–	–	–	–	–	–	–	–
O1C2C1C1OC1C1OC1C1OC21 (configuration not stated)	> 100 µM (inactive)	–	–	> 100 µM (inactive)	> 100	> 100 µM (inactive)	–	> 100 µM (inactive)	–	> 100 µM (inactive)	> 100 µM (inactive)	–	> 100 µM (inactive)	> 100 µM (inactive)	> 100 µM (inactive)	> 100 µM (inactive)	> 100 µM (inactive)	> 100 µM (inactive)	> 100 µM (inactive)	> 100 µM (inactive)
CCN(CC)c1ccc2cc(C(=O)Nc3ccc4[nH]c(C(=O)N5C[C@@H](CCl)c6c5cc(OC(=O)Nc5ccccc5)c5[nH]cc(C)c65)cc4c3)oc2c1 [CARZELESIN]	–	–	0.000201 µM (active)	0.000266 µM (active)	0.000676	0.000343 µM (active)	9.08e-05 µM (active)	0.000708 µM (active)	0.000995 µM (active)	–	0.00024 µM (active)	< 0.1 µM (active)	–	–	–	9.25e-05 µM (active)	–	–	–	–
